Tests used:
[1] = test system: mutagenised rice seedlings of ten rice varieties; assay: Field screen of mutagenised rice seedlings, all other plants; format: in vivo; details: 2X treatment: nicosulfuron 0.063 lb a.i. per acre, imazethapyr 0.125 lb a.i. per acre; 0.25% non-ionic surfactant; 3-4 leaf stage; about four weeks later
Description: The second resistance mechanism resulted from inducing mutations in seeds of each of ten rice varieties. Mutations were induced by exposure either to gamma rays or to the chemical mutagen ethyl methanesulfonate (EMS). Ten-pound lots of seed of each variety were subjected to 25 k-rad of gamma irradiation from a Cobalt-60 source at the Nuclear Science Center, Louisiana State University, Baton Rouge, La. prior to planting. An additional ten pounds of seed of each variety was divided into three equal portions; and each portion was soaked for 16 hours in either 0.1%, 0.5%, or 1% EMS immediately prior to planting. Several hundred pounds of seed were harvested from plants grown from the seeds subjected to these mutagenic treatments.
The following spring the harvested seed was planted in strips in a field planting occupying a total of about three acres. At the 3-4 leaf stage of seedling development, herbicides were applied to screen for herbicide-resistant mutants. Half of the seedlings of each variety were sprayed with a 2X treatment of nicosulfuron, and half were sprayed with a 2X treatment of imazethapyr, in both cases by a tractor-mounted sprayer. Nicosulfuron was applied at the rate of 0.063 lb active ingredient (a.i.) per acre, and imazethapyr was applied at 0.125 lb a.i. per acre. Non-ionic surfactant (0.25%) was added to each spray solution. […]

[2] = test system: Resistant F3 Hybrid of ATCC 75295 and ATCC 97523; assay: Greenhouse test of plant vigor after imazethapyr, resistant F3 hybrid; format: in vivo, rice; details: for Rating of rice plant vigor: 36 days after treatment at 2-3 leaf stage, 10-point scale, 0 = dead plant, 10 = no visible injury
Description: In the greenhouse tests, pots were planted with F3 seed from crosses between the two lines. Each pot was planted with seed from a single panicle from a single plant; each pot was therefore the equivalent of a headrow. A total of 140 pots were planted in this manner, along with 40 pots of various non-resistant genotypes for comparison. Imazethapyr was applied at the 2-3 leaf stage two weeks after planting, at rates equivalent to 0.063 lb. active ingredient (a.i.) per acre, 0.125 lb. a.i./acre, and 0.313 lb. a.i./acre.
Because the material being tested was an F3 population, with genes still segregating, individual plants had different levels of resistance. At the time this patent application is being filed, there had not been sufficient time to raise rice lines that were demonstrably homozygous for both resistance mechanisms. Raising such demonstrably homozygous lines will be routine for one of ordinary skill in the art, but will require additional time.
Table 2 summarizes measurements taken 36 days after spraying rice at the 2-3 leaf stage of development.

[3] = biological target: T1, AHAS (acetohydroxyacid synthase) in enzyme extracts from normal rice variety Lemont (Oryza sativa subsp. japonica, UniProt Q6K2E8); assay: AHAS enzyme assay, extract from rice variety Lemont; format: biochemical
T1 construct: 40.0 grams (fresh weight) of tissue were extracted in the same manner for each of the three varieties; from tissue; host or cells: stem tissue of greenhouse-grown rice seedlings, variety Lemont (leaf blades removed)
T1 sequence (Q6K2E8 40-644 limits assumed): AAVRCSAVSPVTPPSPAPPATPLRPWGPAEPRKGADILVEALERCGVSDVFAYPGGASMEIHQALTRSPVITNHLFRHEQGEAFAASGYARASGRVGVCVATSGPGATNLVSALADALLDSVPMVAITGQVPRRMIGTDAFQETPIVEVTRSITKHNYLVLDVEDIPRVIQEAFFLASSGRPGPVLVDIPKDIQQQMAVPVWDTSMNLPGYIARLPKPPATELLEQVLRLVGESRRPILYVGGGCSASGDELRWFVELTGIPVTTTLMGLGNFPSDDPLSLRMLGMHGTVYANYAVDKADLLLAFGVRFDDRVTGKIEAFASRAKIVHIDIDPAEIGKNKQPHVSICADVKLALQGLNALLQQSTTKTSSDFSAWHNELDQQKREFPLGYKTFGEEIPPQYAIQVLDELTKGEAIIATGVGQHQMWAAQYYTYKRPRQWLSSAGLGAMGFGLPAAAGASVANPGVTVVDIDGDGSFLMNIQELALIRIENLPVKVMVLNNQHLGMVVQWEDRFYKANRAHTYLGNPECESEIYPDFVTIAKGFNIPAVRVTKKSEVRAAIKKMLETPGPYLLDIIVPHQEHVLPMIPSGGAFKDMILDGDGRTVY
Description: The herbicide resistance of the AHAS enzyme from the ATCC 75295 rice line was compared to the resistance of the AHAS enzymes from the rice varieties "Lemont" and "Mercury," the varieties that were the ancestors of this rice line. The procedures used to assay the activity of acetohydroxyacid synthase were substantially as described in B. K. Singh et al., "Assay of Acetohydroxyacid Synthase," Analytical Biochemistry, vol. 171, pp. 173-179 (1988), except as noted. In the first paragraph of Singh's "Materials and Methods," instead of corn suspension culture cells, stem tissues from greenhouse-grown rice seedlings at the four-leaf stage of development were used. Leaf blades were removed, and 40.0 grams (fresh weight) of tissue were extracted in the same manner for each of the three varieties. […] Pursuit herbicide (imazethapyr) was included in the "standard reaction mixture" for the AHAS assay in the concentrations indicated in Table 1 below. Checks were made of direct acetoin formation during the enzyme assay. Each treatment was conducted with two replicates.

## CCc1cnc(C2=NC(C)(C(C)C)C(=O)N2)c(C(=O)O)c1 (racemic) [imazethapyr, (±)-2-[4,5-dihydro-4-methyl-4-(1-methylethyl)-5-oxo-1H-imidazol-2-yl]-5-ethyl-3-pyridinecarboxylic acid]
[1]
  Symptoms of injury (in words): either severely injured or dead
[2]; 0.063 lb. a.i./acre
  Rating of rice plant vigor: 10
[2]; 0.125 lb. a.i./acre
  Rating of rice plant vigor: 10
[2]; 0.313 lb. a.i./acre
  Rating of rice plant vigor: 10
[2]; F3 plants that inherited both resistance mechanisms, up to 0.313 lb. a.i. per acre
  Tolerance (in words): tolerance to all levels of herbicide tested
[2]; plants with both resistance mechanisms, 0.313 pounds active ingredient per acre, 36 days after treatment
  Visible injury (in words): no visible injury
[2]; resistant F3 plants, greenhouse test
  Time to visible resumption of growth after herbicide application: about a week
[3]; imazethapyr 0.1 μM
  activity at 0.1 µM: 102%
[3]; imazethapyr 1 μM
  activity at 1 µM: 102%
[3]; imazethapyr 10 μM
  activity at 10 µM: 87%
[3]; imazethapyr 100 μM
  activity at 100 µM: 81%

Source: patent US5736629A, “Herbicide resistant rice” (priority 1997, dated 1998)
